Test results reported in patent US9802899B2, “Heterocyclic compounds as pesticides” (BAYER CROPSCIENCE AG, priority 2012, dated 2017).
Read-outs that look alike come from different tables or passages of the source.

Key:
[1] = Determination of the log P values by HPLC (formic acid method); type: physicochemical; details: reversed-phase column (C 18), acidic range (pH 3.4), 55° C.; for chromatographic logP: reversed-phase HPLC column (C 18)
Protocol: 1) Description of Method for Determination of the Log P Values (Formic Acid Method)
Eluents for determination in the acidic range (pH 3.4):
Eluent A: acetonitrile+1 ml of formic acid/liter. Eluent B: water+0.9 ml of formic acid/liter.
The lambda max values were determined in the maxima of the chromatographic signals using the UV spectra from 200 nm to 400 nm.

Lucilia cuprina larvae = assay: Lucilia cuprina test (LUCICU); type: in vivo; details: application rate 100 ppm; larvae on treated horse meat; after 2 days
Protocol: Lucilia cuprina Test (LUCICU)
(§1) Solvent: dimethyl sulphoxide
To produce a suitable preparation of active compound, 10 mg of active compound are mixed with 0.5 ml of dimethyl sulphoxide, and the concentrate is diluted with water to the desired concentration.
Vessels containing horse meat treated with the active compound preparation of the desired concentration are populated with about 20 Lucilia cuprina larvae.
After 2 days, the kill in % is determined 100% means that all of the larvae have been killed; 0% means that none of the larvae have been killed.

Cooperia curticei = Cooperia curticei test (COOPCU); type: in vivo
Protocol: Cooperia curticei Test (COOPCU)
as §1
To produce a suitable preparation of active compound, 10 mg of active compound are mixed with 0.5 ml of dimethyl sulphoxide, and the concentrate is diluted with Ringer solution to the desired concentration.
Vessels containing the active compound preparation of the desired concentration are populated with about 40 nematode larvae (Cooperia curticei).
After 5 days, the kill in % is determined 100% means that all of the larvae have been killed; 0% means that none of the larvae have been killed.

Meloidogyne incognita = Meloidogyne incognita test (MELGIN); type: in vivo; details: Meloidogyne incognita, 336 h; application rate 20 ppm; lettuce in sand; after 14 days; read-out: nematicidal effect (formation of galls)
Protocol: Meloidogyne incognita Test (MELGIN)
Solvent: 125.0 parts by weight of acetone
To prepare a suitable active compound preparation, 1 part by weight of active compound is mixed with the stated amount of solvent and the concentrate is diluted with water to the desired concentration.
Vessels are filled with sand, active compound solution, an egg/larvae suspension of the root-knot nematode (Meloidogyne incognita) and lettuce seeds. The lettuce seeds germinate and the plants develop. On the roots, galls are formed.
After 14 days, the nematicidal effect in % is determined by the formation of galls. 100% means that no galls have been found; 0% means that the number of galls on the treated plants corresponds to the untreated control.

Phaedon cochleariae = Phaedon cochleariae spray test (PHAECO); type: in vivo; details: foliar, 168 h, application rate 500 g/ha, larvae on Chinese cabbage leaf discs, after 7 days, read-out: efficacy
Protocol: Phaedon cochleariae Spray Test (PHAECO)
(§2) Solvents: 78.0 parts by weight of acetone • • 1.5 parts by weight of dimethylformamide
(§3) Emulsifier: 0.5 part by weight of alkylaryl polyglycol ether
(§4) To produce a suitable preparation of active compound, 1 part by weight of active compound is mixed with the stated amounts of solvents and emulsifier, and the concentrate is diluted with emulsifier-containing water to the desired concentration.
After 7 days, the efficacy in % is determined. 100% means that all of the beetle larvae have been killed; 0% means that none of the beetle larvae have been killed.

Myzus persicae = Myzus persicae spray test (MYZUPE); type: in vivo; details: Chinese cabbage leaf discs, after 6 days
Protocol: Myzus persicae Spray Test (MYZUPE)
Solvents: 78 parts by weight of acetone • • 1.5 parts by weight of dimethylformamide
as §3, §4
Discs of Chinese cabbage leaves (Brassica pekinensis) infested by all stages of the green peach aphid (Myzus persicae) are sprayed with an active compound preparation of the desired concentration.
After 6 days, the efficacy in % is determined 100% here means that all of the aphids have been killed; 0% means that no aphids have been killed.

Spodoptera frugiperda = Spodoptera frugiperda spray test (SPODFR); type: in vivo; details: caterpillars on maize leaf discs, after 7 days
Protocol: Spodoptera frugiperda Spray Test (SPODFR)
as §2, §3, §4
Leaf discs of maize (Zea mays) are sprayed with an active compound formulation of the desired concentration and, after drying, populated with caterpillars of the armyworm (Spodoptera frugiperda).
After 7 days, the efficacy in % is determined. 100% means that all of the caterpillars have been killed; 0% means that none of the caterpillars have been killed.

Boophilus microplus = Boophilus microplus test (DIP); type: in vivo; details: application rate 100 ppm, after 7 days by laying of fertile eggs, 100% = no fertile eggs
Protocol: Boophilus microplus Test (DIP)
Test animals: adult engorged Boophilus microplus females of the SP-resistant Parkhurst strain
as §1
10 mg of active compound are dissolved in 0.5 ml of dimethyl sulphoxide. For the purpose of preparing a suitable formulation, the active compound solution is diluted with water to the concentration desired in each case.
This active compound preparation is pipetted into tubes. 8-10 ticks are transferred into a further tube with holes. The tube is immersed into the active compound formulation, and all ticks are completely wetted. After the liquid has run out, the ticks are transferred onto filter discs in plastic dishes and stored in a climate-controlled room.
The activity is assessed after 7 days by laying of fertile eggs. Eggs whose fertility is not visible from the outside are stored in a climate-controlled cabinet until the larvae hatch. An efficacy of 100% means that none of the ticks has laid any fertile eggs.

spider mites = assay: spider mite test, efficacy in % after 6 days; type: in vivo; details: application rate of 500 g/ha, 100% = all spider mites killed, 0% = none killed
Protocol: After 6 days, the efficacy in % is determined. 100% means that all of the spider mites have been killed; 0% means that none of the spider mites have been killed.

Compound | log P [1] | efficacy (kill) (Lucilia cuprina larvae) [%] | also measured
O=C(Nc1ccn(-c2ccccc2Br)n1)c1ccccc1Cl [Compound I-1-51] | 2.83 | 90 | –
O=C(Nc1ccn(-c2c(F)cccc2F)c1)c1ccccc1C(F)(F)F [Compound I-3-1, N-[1-(2,6-Difluorophenyl)-1H-pyrrol-3-yl]-2-(trifluoromethyl)benzamide] | – | 80 | chromatographic logP [1]: 2.96; pest or weed control at 20 ppm (Cooperia curticei; Cooperia curticei, 120 h, read-out: efficacy (kill)): 100%; pest or weed control at 20 ppm (Meloidogyne incognita): 90%; pest or weed control at 500 g/ha (Phaedon cochleariae): 100%
O=C(Nc1cnn(-c2ccccc2Cl)n1)c1ccccc1Cl [Compound I-2-2] | 2.89 | 80 | –
O=C(Nc1cnn(-c2c(F)cccc2F)n1)c1c(F)cccc1C(F)(F)F [Compound I-2-39] | 2.88 | – | efficacy (Myzus persicae; application rate 500 g/ha): 90%
O=C(Nc1ccn(-c2ccccc2Cl)n1)c1c(F)cccc1Cl [Compound I-1-37] | 2.84 | 90 | –
Cc1ncccc1C(=O)Nc1ccn(-c2cc(F)ccc2F)n1 [Compound I-1-69] | 1.53 | 90 | efficacy (kill) (Cooperia curticei; application rate 100 ppm, nematode larvae, after 5 days): 80%
N#CCN(C(=O)c1ccccc1C(F)(F)F)c1ccn(-c2c(F)cccc2F)n1 [Compound I-1-259] | 2.90 | – | efficacy (Spodoptera frugiperda; application rate 500 g/ha): 100%
O=C(Nc1ccn(-c2cccc(F)c2F)n1)c1ccccc1Br [Compound I-1-63, 2-Bromo-N-[1-(2,3-difluorophenyl)-1H-pyrazol-3-yl]benzamide] | – | 80 | chromatographic logP [1]: 2.97; pest or weed control at 20 ppm (Cooperia curticei; Cooperia curticei, 120 h, application rate 20 ppm, nematode larvae, after 5 days, read-out: efficacy (kill)): 90%; efficacy (Myzus persicae; application rate 500 g/ha): 90%; pest or weed control at 500 g/ha (Phaedon cochleariae): 100%
O=C(Nc1cnn(-c2c(F)cccc2F)n1)c1ccccc1I [Compound I-2-41] | 2.81 | – | efficacy (Spodoptera frugiperda; application rate 500 g/ha): 100%
O=C(Nc1ccn(-c2ccccc2Cl)n1)c1ccccc1Cl [Compound I-1-20, 2-Chloro-N-[1-(2-chlorophenyl)-1H-pyrazol-3-yl]benzamide] | – | 90 | chromatographic logP [1]: 2.8; pest or weed control at 100 ppm (Cooperia curticei; Cooperia curticei, 120 h, application rate 100 ppm, nematode larvae, after 5 days, read-out: efficacy (kill)): 90%; pest or weed control at 20 ppm (Meloidogyne incognita): 90%; pest or weed control at 500 g/ha (Phaedon cochleariae): 100%
O=C(Nc1ccn(-c2ccccc2C(F)(F)F)n1)c1ccccc1Br [Compound I-1-186] | 2.96 | 80 | –
O=C(Nc1ccn(-c2cncc(F)n2)n1)c1c(F)cccc1F [Compound I-1-403] | 2.32 | – | efficacy (Spodoptera frugiperda; application rate 500 g/ha): 100%
CS(=O)(=O)c1ccccc1C(=O)Nc1ccn(-c2c(F)cccc2F)n1 [Compound I-1-80] | 1.95 | – | efficacy (Myzus persicae; application rate 500 g/ha): 90%
O=C(Nc1nn(-c2ccccc2Cl)cc1Cl)c1ccccc1I [Compound I-1-34] | 3.10 | – | efficacy (Spodoptera frugiperda; application rate 500 g/ha): 83%
O=C(Nc1ccn(-c2ccccc2Cl)n1)c1ncccc1C(F)(F)F [Compound I-1-39] | 2.99 | – | efficacy (Boophilus microplus): 90%; efficacy in % (spider mites): 80%
O=C(Nc1ccn(-c2ncc(F)cc2F)n1)c1ccccc1I [Compound I-1-145] | 2.45 | 90 | efficacy (Myzus persicae; application rate 500 g/ha): 90%

Compound | log P [1] | efficacy (kill) (Lucilia cuprina larvae) [%] | also measured
O=C(Nc1ccn(-c2c(F)cccc2F)n1)c1ccccc1Br [Compound I-1-82] | 2.59 | 95 | efficacy (Boophilus microplus): 80%
O=C(Nc1nn(-c2ccccc2Cl)cc1Br)c1ccccc1Cl [Compound I-1-29] | 2.99 | – | efficacy (Spodoptera frugiperda; application rate 500 g/ha): 83%
N#CCN(C(=O)c1ccccc1Cl)c1ccn(-c2ccccc2Cl)n1 [Compound I-1-25] | 3.04 | – | efficacy (Myzus persicae; application rate 500 g/ha): 80%
O=C(Nc1cnn(-c2ncccc2Cl)n1)c1ccsc1I [Compound I-2-58] | 2.44 | – | efficacy (Myzus persicae; application rate 500 g/ha): 90%
Cc1cc(NC(=O)c2ccccc2I)nn1-c1ccccc1Cl [Compound I-1-35] | 2.53 | – | efficacy (Spodoptera frugiperda; application rate 500 g/ha): 100%
O=C(Nc1ccn(-c2ncccc2Cl)n1)c1ccccc1Cl [Compound I-1-136] | 2.21 | – | efficacy (Spodoptera frugiperda; application rate 500 g/ha): 100%
O=C(Nc1ccn(-c2cc(Cl)ccc2Cl)n1)c1ccccc1Cl [Compound I-1-118] | 3.36 | – | efficacy (Spodoptera frugiperda; application rate 100 g/ha): 83%
COc1ccccc1C(=O)Nc1ccn(-c2c(F)cccc2F)n1 [Compound I-1-280] | 2.75 | – | efficacy (Myzus persicae; application rate 500 g/ha): 90%
O=C(c1ccccc1C(F)(F)F)N(CC1CC1)c1ccn(-c2c(F)cccc2F)n1 [Compound I-1-258] | 3.68 | – | efficacy in % (spider mites): 95%
O=C(Nc1ccn(-c2c(F)cccc2F)n1)c1cccnc1C(F)F [Compound I-1-248] | 1.99 | – | efficacy in % (spider mites): 80%
O=C(Nc1ccn(-c2ccc(F)cn2)n1)c1ccccc1C(F)(F)F [Compound I-1-596] | 2.88 | – | efficacy in % (spider mites): 95%
O=C(Nc1ccn(-c2ncccc2F)n1)c1cccnc1C(F)(F)F [Compound I-1-133] | 1.83 | – | efficacy (Myzus persicae; application rate 500 g/ha): 90%
O=C(Nc1ccn(-c2ncc(Cl)cc2Cl)n1)c1ccccc1C(F)(F)F [Compound I-1-428] | 3.05 | – | efficacy in % (spider mites): 95%
O=C(Nc1ccn(-c2ccc(F)cn2)n1)c1c(F)cccc1F [Compound I-1-598] | 2.61 | – | efficacy in % (spider mites): 85%
O=C(Nc1ccn(-c2c(F)cccc2F)n1)c1ccccc1[N+](=O)[O-] [Compound I-1-86] | 2.20 | – | efficacy (Myzus persicae; application rate 20 g/ha): 90%
